In US20080108582A1, “Methods And Compositions For Combinatorial Approaches To Cancer Gene Therapy” (priority 2003, published 2008):
“Also recorded” adds a separate entry of the source.

What was measured:
mouse model = conditions: 100 mg/kg, intra-peritoneal; cited from earlier work
[1] = test system: p53-RE (p53C#18) in wild type mouse embryonic fibroblasts; test: p53 response element luciferase assay with cisplatin; type: cell-based; conditions: wild type MEF; increasing concentrations at the time of transfection
Protocol: FIG. 12. Treatment with cisplatin enhances activity of p53-RE in cells with wild type p53. Wild type and p53−/− mouse embryonic fibroblasts (MEF) were transfected with p53C#18 as described above. Increasing concentrations of cisplatin were added at the time of transfection. Luciferase assay was performed 36-48 hours later and transfection efficiency was normalized.
To determine whether treatment with cisplatin (which increases steady-state level of p53 protein) can enhance activity of the p53-RE in normal cells, wild type and p53−/− mouse embryonic fibroblasts were treated with increasing concentrations of cisplatin at the time of transfection (FIG. 12).

CAMA-1 cells = test: MTS cytotoxicity assay; type: cell-based, Human; conditions: increasing concentrations of recombinant TRAIL, 48 hours
Protocol: (§1) MTS cytotoxicity assay. Cells were plated 2×10^4 per well in triplicate wells and incubated overnight. […] Cytotoxicity was assessed using a CellTiter 96 Non-Radioactive Cell Proliferation Assay and medium background was subtracted. Results are presented as percent of HBSS-treated control.

MDA-MB-231 cells = test: MTS cytotoxicity assay; type: cell-based, Human; conditions: increasing concentrations of recombinant TRAIL, 48 hours
Protocol: as §1

HCC 1937 cells [2] = test: MTS cytotoxicity assay; type: cell-based, Human
Protocol: (§2) MTS cytotoxicity assay. Cells were plated 2×10^4 per well in triplicate wells and incubated overnight. Serial dilutions of soluble TRAIL in Hank's balanced salt solution (HBSS) were added to the wells and cells were incubated for an additional 36 hours. Cytotoxicity was assessed using a CellTiter 96 Non-Radioactive Cell Proliferation Assay and medium background was subtracted. Results are presented as percent of HBSS-treated control.

MCF-7 cells [3] = test: MTS cytotoxicity assay; type: cell-based, Human
Protocol: as §2

HCC 1937 cells [4] = test: Annexin V determination by flow cytometry; type: cell-based, Human; conditions: 100 ng of TRAIL for 36 hours
Protocol: (§3) Annexin V determination. 1×10^6 cells were plated per 60 mm dish and cultured overnight. Cells were than left untreated or treated with soluble TRAIL (100 ng/ml) and incubated for additional 36 hours. Cells were than trypsinized and washed with 1× Binding Buffer. For each condition, half of the cell suspension was left untreated and another half was incubated for 15 minutes at room temperature in the dark with Annexin V. Immediately after staining, cells were analyzed by flow cytometry.

MCF-7 cells [5] = test: Annexin V determination by flow cytometry; type: cell-based, Human; conditions: 100 ng of TRAIL for 36 hours
Protocol: as §3

Molecule: CCc1c2c(nc3ccc(OC(=O)N4CCC(N5CCCCC5)CC4)cc13)-c1cc3c(c(=O)n1C2)COC(=O)[C@]3(O)CC [irinotecan]
- drug-related toxicity (in words) (mouse model): without drug-related toxicity
- survival in a mouse model (in words) (mouse model): prolong survival

Molecule: N.N.[Cl][Pt][Cl] [Cisplatin, cisplatin]
- effect on activity of p53-RE (in words) [1]: enhanced activity of p53C#18 in cells with wild type p53 in a dose-dependent manner

Molecule: TRAIL: soluble TRAIL, residues 114-281 of the soluble domain of human TRAIL, expressed in E. coli (BIOMOL)
- cell viability by MTS (in words) (CAMA-1 cells): significant TRAIL-dependent reduction of viability
- cell viability by MTS (in words) (MDA-MB-231 cells): significant TRAIL-dependent reduction of viability; also recorded: biphasic effect
- sensitivity to TRAIL-induced apoptosis by MTS (in words) (HCC 1937 cells [2]): completely resistant
- sensitivity to TRAIL-induced apoptosis by MTS (in words) (MCF-7 cells [3]): completely resistant
- increase in Annexin V staining (HCC 1937 cells [4]): approximately 17%
- increase in Annexin V staining (MCF-7 cells [5]): approximately 17%
